Measurements: the supplement of paper PMC8617591

Key:
[1] = system: Mycobacterium tuberculosis Erdman (autoluminescent); assay: total FIC50 (Loewe) at 50% inhibition, three-drug combination (log2); higher = more antagonistic
Method: (§1)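 DiaMOND equipotent three-drug combination dose responses (10 doses, 1.5- or 2-fold spacing, centred on IC90) against autoluminescent M. tuberculosis Erdman in 8 in vitro models. Read-out is OD600, or luminescence for the intracellular and dormancy models, normalised to untreated wells. Hill-fit Einf, AUC25 and GRinf are potency metrics; FIC50 and FIC90 are total Loewe fractional inhibitory concentrations as log2 (negative = synergy).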

[2] = system: Mycobacterium tuberculosis Erdman (autoluminescent); assay: AUC25, normalised area under dose response up to IC25 (three-drug combination) (fraction (0-1)); higher = more potent at low dose
Method: as §1

[3] = system: Mycobacterium tuberculosis Erdman (autoluminescent); assay: total FIC90 (Loewe) at 90% inhibition, three-drug combination (log2); higher = more antagonistic
Method: as §1

[4] = system: Mycobacterium tuberculosis Erdman (autoluminescent); assay: GRinf, maximum normalised growth rate inhibition (three-drug combination) (unitless (-1 to 1)); higher = less effect (negative = killing)
Method: as §1

[5] = system: Mycobacterium tuberculosis Erdman (autoluminescent); assay: Einf, fitted maximum growth inhibition of three-drug combination (fraction); higher = stronger maximal inhibition
Method: as §1

CC[C@@H](CO)NCCN[C@@H](CC)CO [ethambutol] + COc1c(N2C[C@@H]3CCCN[C@@H]3C2)c(F)cc2c(=O)c(C(=O)O)cn(C3CC3)c12 [moxifloxacin] + NC(=O)c1cnccn1 [pyrazinamide]
Conditions	AUC25, [2]	Einf, [5]	GRinf, [4]	total FIC50, [1]	total FIC90, [3]
in vitro model: acidic pH 5.7, time point: constant (~7 days, model-specific)	0.106	0.781	-0.213	0.429	–
in vitro model: acidic pH 5.7, time point: terminal (~4-5 doublings, model-specific)	0.0713	0.959	-0.294	0.98	0.0827
in vitro model: intracellular J774, time point: constant = terminal	–	0.98	-0.497	–	-0.596

Conditions	AUC25, [2]	Einf, [5]	GRinf, [4]	total FIC50, [1]	total FIC90, [3]
in vitro model: butyrate, time point: constant (~7 days, model-specific)	0.108	0.926	0.001	0.345	–
in vitro model: butyrate, time point: terminal (~4-5 doublings, model-specific)	0.0814	0.967	-0.00667	0.477	0.431
in vitro model: cholesterol 0.05 mM, time point: constant (~7 days, model-specific)	0.12	0.683	-0.365	–	–
in vitro model: cholesterol 0.05 mM, time point: terminal (~4-5 doublings, model-specific)	0.135	0.8	-0.21	0.703	–
in vitro model: cholesterol-high 0.2 mM, time point: constant (~7 days, model-specific)	0.0703	0.962	-0.373	1.02	–
in vitro model: cholesterol-high 0.2 mM, time point: terminal (~4-5 doublings, model-specific)	0.0603	1	-0.587	1.29	1.24
in vitro model: dormancy (butyrate + nitrate, low O2), time point: constant (~7 days, model-specific)	0.0861	0.816	0.46	-0.23	–
in vitro model: dormancy (butyrate + nitrate, low O2), time point: terminal (~4-5 doublings, model-specific)	0.0923	0.979	-0.107	0.189	-0.144
in vitro model: standard 7H9 glycerol, time point: constant = terminal	0.0574	0.966	-0.145	–	–
in vitro model: valerate, time point: constant (~7 days, model-specific)	0.0872	0.884	-0.169	0.599	–
in vitro model: valerate, time point: terminal (~4-5 doublings, model-specific)	0.0506	0.945	-0.037	0.696	-0.119

COc1nc2ccc(Br)cc2cc1[C@@H](c1ccccc1)[C@@](O)(CCN(C)C)c1cccc2ccccc12 [bedaquiline] + CC[C@@H](CO)NCCN[C@@H](CC)CO [ethambutol] + CC(=O)NC[C@H]1CN(c2ccc(N3CCOCC3)c(F)c2)C(=O)O1 [linezolid]
Conditions	AUC25, [2]	Einf, [5]	GRinf, [4]	total FIC50, [1]	total FIC90, [3]
in vitro model: acidic pH 5.7, time point: constant (~7 days, model-specific)	0.0748	0.822	-0.403	-0.0157	–
in vitro model: acidic pH 5.7, time point: terminal (~4-5 doublings, model-specific)	0.0941	0.977	-0.395	0.509	0.711
in vitro model: intracellular J774, time point: constant = terminal	–	0.922	-0.379	–	0.819

Conditions	AUC25, [2]	Einf, [5]	GRinf, [4]	total FIC50, [1]	total FIC90, [3]
in vitro model: butyrate, time point: constant (~7 days, model-specific)	0.0774	0.931	-0.0747	0.429	–
in vitro model: butyrate, time point: terminal (~4-5 doublings, model-specific)	0.0539	0.964	-0.0521	0.371	-0.223
in vitro model: cholesterol 0.05 mM, time point: constant (~7 days, model-specific)	0.151	0.783	-0.458	0.52	–
in vitro model: cholesterol 0.05 mM, time point: terminal (~4-5 doublings, model-specific)	0.159	0.946	-0.703	8.47	–
in vitro model: cholesterol-high 0.2 mM, time point: constant (~7 days, model-specific)	0.0976	0.984	-1	0.98	–
in vitro model: cholesterol-high 0.2 mM, time point: terminal (~4-5 doublings, model-specific)	0.114	1	-0.946	0.45	1.37
in vitro model: dormancy (butyrate + nitrate, low O2), time point: constant (~7 days, model-specific)	0.124	0.886	0.486	1.37	–
in vitro model: dormancy (butyrate + nitrate, low O2), time point: terminal (~4-5 doublings, model-specific)	0.127	0.989	-0.414	0.241	0.872
in vitro model: standard 7H9 glycerol, time point: constant = terminal	0.0754	0.943	-0.0326	0.387	–
in vitro model: valerate, time point: constant (~7 days, model-specific)	0.106	0.915	-0.161	0.715	–
in vitro model: valerate, time point: terminal (~4-5 doublings, model-specific)	0.0559	0.954	-0.121	0.85	-0.19

CC(C)/N=c1\cc2n(-c3ccc(Cl)cc3)c3ccccc3nc-2cc1Nc1ccc(Cl)cc1 [clofazimine] + NNC(=O)c1ccncc1 [isoniazid] + CO[C@H]1/C=C/O[C@@]2(C)Oc3c(C)c(O)c4c(O)c(c(/C=N/N5CCN(C6CCCC6)CC5)c(O)c4c3C2=O)NC(=O)/C(C)=C\C=C\[C@H](C)[C@H](O)[C@@H](C)[C@@H](O)[C@@H](C)[C@H](OC(C)=O)[C@@H]1C [rifapentine]
Conditions	AUC25, [2]	Einf, [5]	GRinf, [4]	total FIC50, [1]	total FIC90, [3]
in vitro model: acidic pH 5.7, time point: constant (~7 days, model-specific)	0.0883	0.85	-0.0449	0.415	–
in vitro model: acidic pH 5.7, time point: terminal (~4-5 doublings, model-specific)	0.09	0.989	-0.185	0.259	0.468
in vitro model: intracellular J774, time point: constant = terminal	–	0.954	-0.131	–	0.169

Conditions	AUC25, [2]	Einf, [5]	GRinf, [4]	total FIC50, [1]	total FIC90, [3]
in vitro model: butyrate, time point: constant (~7 days, model-specific)	0.0986	0.951	-0.088	0.508	0.999
in vitro model: butyrate, time point: terminal (~4-5 doublings, model-specific)	0.0792	0.98	-0.0855	0.521	0.588
in vitro model: cholesterol 0.05 mM, time point: constant (~7 days, model-specific)	0.118	0.666	0.0951	0.541	–
in vitro model: cholesterol 0.05 mM, time point: terminal (~4-5 doublings, model-specific)	0.0787	0.8	-0.0213	1.11	1.88
in vitro model: cholesterol-high 0.2 mM, time point: constant (~7 days, model-specific)	0.0889	0.959	-0.471	0.542	–
in vitro model: cholesterol-high 0.2 mM, time point: terminal (~4-5 doublings, model-specific)	0.0744	0.999	-0.743	0.993	0.67
in vitro model: dormancy (butyrate + nitrate, low O2), time point: constant (~7 days, model-specific)	0.0787	0.9	0.166	0.0637	-0.201
in vitro model: dormancy (butyrate + nitrate, low O2), time point: terminal (~4-5 doublings, model-specific)	0.0623	0.989	-0.337	0.174	0.32
in vitro model: standard 7H9 glycerol, time point: constant = terminal	0.111	0.942	-0.0519	0.0163	1.07
in vitro model: valerate, time point: constant (~7 days, model-specific)	0.118	0.858	0.0326	0.882	–
in vitro model: valerate, time point: terminal (~4-5 doublings, model-specific)	0.0644	0.907	0.0296	0.418	-0.138

COc1nc2ccc(Br)cc2cc1[C@@H](c1ccccc1)[C@@](O)(CCN(C)C)c1cccc2ccccc12 [bedaquiline] + O=[N+]([O-])c1cn2c(n1)OC[C@@H](OCc1ccc(OC(F)(F)F)cc1)C2 [pretomanid] + CO[C@H]1/C=C/O[C@@]2(C)Oc3c(C)c(O)c4c(O)c(c(/C=N/N5CCN(C6CCCC6)CC5)c(O)c4c3C2=O)NC(=O)/C(C)=C\C=C\[C@H](C)[C@H](O)[C@@H](C)[C@@H](O)[C@@H](C)[C@H](OC(C)=O)[C@@H]1C [rifapentine]
Conditions	AUC25, [2]	Einf, [5]	GRinf, [4]	total FIC50, [1]	total FIC90, [3]
in vitro model: acidic pH 5.7, time point: constant (~7 days, model-specific)	0.116	0.943	-0.512	0.516	–
in vitro model: acidic pH 5.7, time point: terminal (~4-5 doublings, model-specific)	0.0913	0.987	-0.4	0.436	0.698
in vitro model: intracellular J774, time point: constant = terminal	–	0.985	-0.531	–	0.0139

Conditions	AUC25, [2]	Einf, [5]	GRinf, [4]	total FIC50, [1]	total FIC90, [3]
in vitro model: butyrate, time point: constant (~7 days, model-specific)	0.088	0.933	-0.0563	0.655	0.181
in vitro model: butyrate, time point: terminal (~4-5 doublings, model-specific)	0.0789	0.971	-0.0507	0.541	0.744
in vitro model: cholesterol 0.05 mM, time point: constant (~7 days, model-specific)	0.106	0.751	-0.236	0.454	–
in vitro model: cholesterol 0.05 mM, time point: terminal (~4-5 doublings, model-specific)	0.0678	0.929	-0.207	0.994	0.888
in vitro model: cholesterol-high 0.2 mM, time point: constant (~7 days, model-specific)	0.0733	0.918	-0.21	1.12	1.36
in vitro model: cholesterol-high 0.2 mM, time point: terminal (~4-5 doublings, model-specific)	0.0496	0.999	-0.642	1.19	0.947
in vitro model: dormancy (butyrate + nitrate, low O2), time point: constant (~7 days, model-specific)	0.0511	0.899	0.22	0.0544	-0.43
in vitro model: dormancy (butyrate + nitrate, low O2), time point: terminal (~4-5 doublings, model-specific)	0.032	0.983	-0.177	0.0788	-0.459
in vitro model: standard 7H9 glycerol, time point: constant = terminal	0.072	0.922	-0.0207	-0.0622	0.308
in vitro model: valerate, time point: constant (~7 days, model-specific)	0.0905	0.904	-0.217	1.07	–
in vitro model: valerate, time point: terminal (~4-5 doublings, model-specific)	0.0466	0.947	-0.0362	1.15	0.748
